Assay results: patent US20010011075A1, “5'-SUBSTITUTED-RIBOFURANOSYL BENZIMIDAZOLES AS ANTIVIRAL AGENTS” (priority 1999, published 2001)
Read-outs that look alike come from different tables or passages of the source.

How the values were obtained:
HCMV = HCMV plaque (focus) reduction assay in HFF cells; assay type: cell-based, HCMV (Towne strain); conditions: for IC50: HCMV plaque assay, HFF cells, averages from two or more experiments, read-out: 50% Inhibitory Concentration, Antiviral Activity (plaque)
Description: (§1) A plaque purified isolate, Po, of the Towne strain of HCMV was used in all experiments and was a gift of Dr. Mark Stinski, University of Iowa. The KOS strain of HSV-1 was used and was provided by Dr. Sandra K. Weller, University of Connecticut. Stock preparations of HCMV and HSV-1 were prepared and titered as known to those of skill and the art and described in Turk, S. R. et al. (1987) Antimicrob. Agents Chemother. Vol. 31:544-550 and Shipman, C., Jr., et al. (1990) J. Virol. Methods Vol. 28:101-106, each incorporated herein by reference.
(§2) HCMV plaque reduction experiments were performed with monolayer cultures of HFF cells by a procedure similar to that referenced above for titration of the viruses and described in Devivar, R. V. et al. (1994) J. Med. Chem. Vol. 37:2942-2949. Activity of compounds against HSV-1 was evaluated using an ELISA assay.
The effect of compounds of the replication of HCMV was measured using a plaque (focus) reduction assay. For the former, HFF cells in 24-well culture dishes were infected with approximately 50 p.f.u. of HCMV per well using the procedures detailed above. Compounds dissolved in growth medium were added in four to six selected concentrations to duplicate wells following virus adsorption. Following incubation at 37° C. for 7 to 10 days, cell sheets were fixed, stained and microscopic plaques were enumerated as described above. Drug effects were calculated as a percentage of reduction in number of plaques in the presence of each drug concentration compared to the number observed in the absence of drug. DHPG (ganciclovir) was used as a positive control in all experiments.
(§3) Dose-response relationships can be used to compare drug effects. These are constructed by linearly regressing the percent inhibition of parameters derived in the preceding sections against log drug concentrations. The 50 inhibitory (I50) concentrations were calculated from the regression lines using the methods described by Goldstein. See Goldstein, A., Biostatistics: An Introductory Text, MacMillan, New York, pp. 156-161 (1964), incorporated herein by reference.
(§4) (2) A plaque assay was used to quantitate anti HCMV activity, an ELISA assay was used to quantitate activity against HSV-1. DHPG (ganciclovir) was used as a positive control for the HCMV assay.

HFF cells = test: Visual cytotoxicity in stationary HFF cells at time of plaque enumeration; assay type: cell-based, human; conditions: visual cytotoxicity on HFF cells at time of HCMV plaque enumeration; read-out: 50% Inhibitory Concentration, Cytotoxicity (HFF)
Description: (§5) KB cells (available from the American Type Culture Collection (ATCC) 12301 Parklawn Drive, […], Md. 20852 (ATCC CCL 17)), an established human cell line derived from an epidermal oral carcinoma, were grown in minimal essential medium (MEM) (Sigma) with Hanks salts (MEM(H)) supplemented with 5% fetal calf serum. Human foreskin fibroblasts (HFF cells) (provided by the University of Michigan Hospital) and African green monkey kidney cells (BSC-1) (ATTC CCL 26) cells were grown in MEM with Earl salts (MEM(E)) supplemented with 10% fetal bovine serum. Cells were passaged according to conventional procedures and as described in Shipman, C., Jr. et al. (1976) Antimicrob. Agents Chemother. Vol. 9:120 and incorporated herein by reference. Briefly, cells were passaged at 1:2 to 1:10 dilutions according to conventional procedures by using 0.05% trypsin plus 0.02% EDTA in a HEPES buffered salt solution. HFF cells were passaged only at 1:2 dilutions.
(§6) Two different methods were used to evaluate cytotoxicity of the compounds. First, cytotoxicity produced in stationary HFF cells was determined by microscopical examination of cells not affected by the virus used in the plaque assay. Second the effect of compounds on KB cells during two population doubling times was determined by crystal violet staining and spectrophotometric quantitation of dye eluted from stained cells. This method has been utilized for the analysis of ganciclovir and zidovudine (See Prichard, M. N. et al. Antiviral Res. (1991) Vol. 35:1060-1065).
(§7) (3) Visual cytotoxicity was scored on HFF cells at the time of HCMV plaque enumeration. Inhibition of KB cell growth was determined as described in the experimental. 3L was used as a positive control for the KB cytotoxicity assay.

KB cells = test: Inhibition of KB cell growth (crystal violet staining); assay type: cell-based, human; conditions: for IC50: inhibition of KB cell growth, read-out: 50% Inhibitory Concentration, Cytotoxicity (KB)
Description: as §5, §6, §7

HSV-1 = HSV-1 ELISA assay; assay type: cell-based, HSV-1 (KOS strain); conditions: read-out: 50% Inhibitory Concentration, Antiviral Activity (ELISA)
Description: as §1, §2
ELISA techniques according to standard procedures were also used to determine activity against HSV-1. Drug effects were calculated as a percentage of the reduction in virus titers in the presence of each drug concentration compared to the titer obtained in the absence of drug. Ganciclovir was used as a positive control in all experiments.
as §3, §4

L1210 cells = test: Antiproliferative activity: growth of L1210 cells; assay type: cell-based, mouse; conditions: for IC50: concentration required to decrease final growth rate of L1210 cells to half of control rate, read-out: 50% Inhibitory Concentration, Antiproliferative Activity
Description: Antiproliferative activity was evaluated by measuring the effect of the compounds on the growth of L1210 cells, a mouse leukemia cell line which is generally available and can be obtained from Cancer Chemotherapy Center, Japanese Foundation for Cancer Research. Antiproliferative activity was measured using conventional procedures and as described in Wotring, L. L. and Townsend, L. B., (1979) Cancer Res. Vol. 39:3018-3023 and Cory, A. H. et al. (1991) Cancer Comm. Vol. 3:207-212, each incorporated herein by reference.
(8) The concentration required to decrease the final growth rate of L1210 cells to half of the control rate. All values are averages from two or more experiments.

[1] = Visual cytotoxicity in stationary HFF cells at time of plaque enumeration; assay type: cell-based, human; conditions: human, stationary human foreskin fibroblasts (HFF cells); visual cytotoxicity on HFF cells at time of HCMV plaque enumeration; read-out: 50% Inhibitory Concentration, Cytotoxicity (HFF)
Description: as §5, §6, §7

[2] = Inhibition of KB cell growth (crystal violet staining); assay type: cell-based, human; conditions: human, KB cells (human epidermal oral carcinoma line); inhibition of KB cell growth; read-out: 50% Inhibitory Concentration, Cytotoxicity (KB)
Description: as §5, §6, §7

[3] = averages from two or more experiments
[4] = Human alphaherpesvirus 1, averages from two or more experiments

SMILES	IC50 (HCMV)	IC50 (HFF cells)	IC50 (KB cells)	IC50 (HSV-1; [3])	also measured
O[C@@H]1[C@H](O)[C@@H](CBr)O[C@H]1n1c(Cl)nc2cc(Cl)c(Cl)cc21 [Compound 13c, 2,5,6-trichloro-1-(5′-deoxy-5′-bromo-β-D-ribofuranosyl)benzimidazole]	1500 nM	32 µM	90 µM	> 100 µM	
CC(=O)O[C@@H]1[C@H](OC(C)=O)[C@@H](CI)O[C@H]1n1c(Cl)nc2cc(Cl)c(Cl)cc21 [Compound 12d, 2,5,6-trichloro-1-(2′,3′-di-O-acetyl-5′-deoxy-5′-iodo-β-D-ribofuranosyl)benzimidazole]	2500 nM	32 µM	60 µM	> 100 µM	
CC1(C)O[C@@H]2[C@H](O1)[C@@H](CO)O[C@H]2n1c(Cl)nc2cc(Cl)c(Cl)cc21 [Compound 18, 2,5,6-Trichloro-1-(2′,3′-O-isopropylidene-β-D-ribofuranosyl)benzimidazole]	12400 nM	> 100 µM			
CSC[C@H]1O[C@@H](n2c(Cl)nc3cc(Cl)c(Cl)cc32)[C@H](OC(C)=O)[C@@H]1OC(C)=O [Compound 16b, 2,5,6-trichloro-1-(2′,3′-di-O-acetyl-5′-deoxy-5′-methylthio-β-D-ribofuranosyl) benzimidazole]	4800 nM	32 µM	> 100 µM	> 100 µM	
O[C@@H]1[C@H](O)[C@@H](CCl)O[C@H]1n1c(Cl)nc2cc(Cl)c(Cl)cc21 [Compound 13b, 2,5,6-trichloro-1-(5′-deoxy-5′-chloro-β-D-ribofuranosyl)benzimidazole]	1000 nM	32 µM	90 µM	> 100 µM	IC50 (L1210 cells): > 100 µM
O[C@@H]1[C@H](O)[C@@H](CI)O[C@H]1n1c(Cl)nc2cc(Cl)c(Cl)cc21 [Compound 13d, 2,5,6-trichloro-1-(5′-deoxy-5′-iodo-β-D-ribofuranosyl)benzimidazole]	3200 nM	32 µM			
CC(=O)O[C@@H]1[C@H](OC(C)=O)[C@@H](CN=[N+]=[N-])O[C@H]1n1c(Cl)nc2cc(Cl)c(Cl)cc21 [Compound 16a, 2,5,6-trichloro-1-(2′,3′-di-O-acetyl-5′-deoxy-5′-azido-β-D-ribofuranosyl)benzimidazole]	1500 nM	32 µM	70 µM	> 100 µM	
CC(=O)O[C@@H]1[C@H](OC(C)=O)[C@@H](CF)O[C@H]1n1c(Cl)nc2cc(Cl)c(Cl)cc21 [Compound 12a, 2,5,6-trichloro-1-(2′,3′-di-O-acetyl-5′-deoxy-5′-fluoro-β-D-ribofuranosyl)benzimidazole]	600 nM	32 µM	100 µM	> 100 µM	cytotoxicity in growing KB cells (in words) (KB cells): little or no cytoxicity
CC(=O)O[C@@H]1[C@H](OC(C)=O)[C@@H](CBr)O[C@H]1n1c(Cl)nc2cc(Cl)c(Cl)cc21 [Compound 12c, 2,5,6-trichloro-1-(2′,3′-di-O-acetyl-5′-deoxy-5′-bromo-β-D-ribofuranosyl)benzimidazole]	2700 nM	32 µM	60 µM	> 100 µM	
CSC[C@H]1O[C@@H](n2c(Cl)nc3cc(Cl)c(Cl)cc32)[C@H](O)[C@@H]1O [Compound 17b, 2,5,6-trichloro-1-(5′-deoxy-5′-methylthio-β-D-ribofuranosyl)benzimidazole]	4500 nM	32 µM	> 100 µM	> 100 µM	anti-HCMV activity (in words) (HCMV; Table 1): equally active as the 5′-O-ethyl derivative (8b); IC50 (L1210 cells): > 100 µM
Nc1nc(O)c2ncn(COC(CO)CO)c2n1 [DHPG, ganciclovir, reference compound]					IC50 [1]: > 100 µM; IC50 at 2 population doubling times [2]: > 100 µM; IC50 (HSV-1; [4]): 3.5 µM
CC1(C)OC2C(CN=[N+]=[N-])OC(n3c(Cl)nc4cc(Cl)c(Cl)cc43)C2O1 [Compound 19a, 2,5,6-Trichloro-1-(2′,3′-O-isopropylidene-5′-deoxy-5′-azido-β-D-ribofuranosyl) benzimidazole]	10900 nM	32 µM			
O[C@@H]1[C@H](O)[C@@H](CF)O[C@H]1n1c(Cl)nc2cc(Cl)c(Cl)cc21 [Compound 13a, 2,5,6-trichloro-1-(5′-deoxy-5′-fluoro-β-D-ribofuranosyl)benzimidazole]	500 nM	32 µM	> 100 µM	> 100 µM	cytotoxicity in growing KB cells (in words) (KB cells): little or no cytoxicity; IC50 (L1210 cells): > 100 µM; antiproliferative effect in L1210 cells (in words) (L1210 cells; statement in text on Table 2): no antiproliferative effect
CC(=O)O[C@@H]1[C@H](OC(C)=O)[C@@H](CCl)O[C@H]1n1c(Cl)nc2cc(Cl)c(Cl)cc21 [Compound 12b, 2,5,6-trichloro-1-(2′,3′-di-O-acetyl-5′-deoxy-5′-chloro-β-D-ribofuranosyl)benzimidazole]	1400 nM	32 µM	90 µM	> 100 µM	
CC1(C)O[C@@H]2[C@H](O1)[C@@H](CCl)O[C@H]2n1c(Cl)nc2cc(Cl)c(Cl)cc21 [Compound 19b, 2,5,6-Trichloro-1-(2′,3′-O-isopropylidene-5′-deoxy-5′-chloro-β-D-ribofuranosyl) benzimidazole]	13500 nM	66 µM	100 µM	> 100 µM	
OC[C@H]1O[C@@H](n2c(Cl)nc3cc(Cl)c(Cl)cc32)[C@H](O)[C@@H]1O [Compound 1, 2,5,6-trichloro-1-(β-D-ribofuranosyl)benzimidazole, reference compound]					IC50 (HCMV; Human betaherpesvirus 5, HFF): 2760 nM; IC50 [1]: 238 µM; IC50 at 2 population doubling times [2]: 210 µM; IC50 (HSV-1; [4]): > 100 µM
